Experimental data taken from article PMC10108347, “Heterobifunctional Ligase Recruiters Enable pan-Degradation of Inhibitor of Apoptosis Proteins” (Journal of Medicinal Chemistry, 2023).
Like-named read-outs stand apart in the source and are kept apart here.

Legend:
cIAP2 = cIAP2 (Homo sapiens, UniProt Q13489); experiment: Immunoblotting (western blot) quantification of cIAP2 levels in MM.1S cells; settings: for remaining activity at 0.1 µM: MM1.S
CRBN = CRBN (Homo sapiens, UniProt Q96SW2); experiment: Immunoblotting (western blot) quantification of CRBN levels in MM.1S cells; settings: for remaining activity at 0.1 µM: MM1.S, 16 h, read-out: %remaining protein CRBN
CRBN, sequence (Q96SW2 whole entry): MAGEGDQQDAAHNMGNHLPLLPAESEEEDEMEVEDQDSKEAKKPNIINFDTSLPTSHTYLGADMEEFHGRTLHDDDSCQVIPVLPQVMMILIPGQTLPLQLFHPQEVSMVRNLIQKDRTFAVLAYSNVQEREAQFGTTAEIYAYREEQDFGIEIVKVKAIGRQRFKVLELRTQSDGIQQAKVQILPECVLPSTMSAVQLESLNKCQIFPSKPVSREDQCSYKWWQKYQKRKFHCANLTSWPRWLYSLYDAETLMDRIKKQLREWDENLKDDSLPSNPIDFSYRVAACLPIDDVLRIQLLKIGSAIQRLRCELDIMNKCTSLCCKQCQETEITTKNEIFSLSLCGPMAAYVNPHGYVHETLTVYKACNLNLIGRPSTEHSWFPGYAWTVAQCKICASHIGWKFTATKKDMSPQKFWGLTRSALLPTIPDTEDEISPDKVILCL
Protocol: (§1) To evaluate the capability of our panel of hetero-PROTACs for E3 ligase degradation, VHL19, VHL30, CRBN, cIAP1, cIAP2, and XIAP levels were quantified by western blot analyses. […] SDS-PAGE was performed, and proteins were then transferred onto PVDF membranes. Blotted membranes were blocked with 5% milk in Tris-buffered saline/Tween20 (TBST). Primary antibodies were diluted in 5% BSA in TBST, and incubations were performed overnight at 4 °C. Secondary HRP-conjugated antibodies diluted in 5% milk were incubated for 1 h at room temperature. Detection of proteins on PVDF was carried out using the WesternBright ECL HRP substrate or the WesternBright Sirius HRP substrate (Advansta, San Jose, USA) and imaged with LAS 4000× (Fujifilm). Membranes were subjected to 10 min incubation with Restore Western Blot Stripping Buffer (Thermo Fisher Scientific, Waltham, USA), followed by TBST washes. After brief re-activation with methanol, the membranes were blocked, and further probing of proteins was carried out.
(§2) Quantification of blots was performed using ImageJ software (National Institutes of Health).

cIAP1 = cIAP1 (Homo sapiens, UniProt Q13490); experiment: Immunoblotting (western blot) quantification of cIAP1 levels in MM.1S cells; settings: for remaining activity at 0.1 µM: MM1.S, 16 h
cIAP1, sequence (Q13490 whole entry): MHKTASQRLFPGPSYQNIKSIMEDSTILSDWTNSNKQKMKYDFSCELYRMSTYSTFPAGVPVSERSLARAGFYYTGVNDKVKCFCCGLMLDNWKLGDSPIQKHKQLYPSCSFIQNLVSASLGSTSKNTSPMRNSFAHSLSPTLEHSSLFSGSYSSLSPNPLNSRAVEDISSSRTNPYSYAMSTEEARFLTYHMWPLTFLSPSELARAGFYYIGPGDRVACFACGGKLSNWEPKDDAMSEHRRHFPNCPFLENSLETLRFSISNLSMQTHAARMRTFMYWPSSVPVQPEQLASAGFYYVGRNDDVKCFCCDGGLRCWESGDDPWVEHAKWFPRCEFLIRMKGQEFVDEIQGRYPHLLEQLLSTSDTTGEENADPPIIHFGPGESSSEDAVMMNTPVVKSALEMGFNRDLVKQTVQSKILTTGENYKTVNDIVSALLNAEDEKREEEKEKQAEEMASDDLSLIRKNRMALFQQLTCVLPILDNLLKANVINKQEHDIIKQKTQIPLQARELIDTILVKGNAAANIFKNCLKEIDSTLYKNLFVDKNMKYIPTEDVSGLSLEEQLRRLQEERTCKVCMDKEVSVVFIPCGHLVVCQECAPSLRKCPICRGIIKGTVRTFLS

[1] = Log D7.4 measurement by chromatographic (fast-gradient HPLC) method; settings: for chromatographic logD: pH 7.4
Protocol: The system was calibrated by plotting the retention times of six different drugs (atenolol, metoprolol, labetalol, diltiazem, triphenylene, and permethrin) versus their literature-known log D7.4 in a calibration line (R^2 = 0.99). Subsequently, the mean retention times of the analytes were taken to calculate their log D7.4 values with the aid of the calibration line. At least two independent measurements of each analyte were performed.

[2] = target: T1, plasma protein (HSA column) (Homo sapiens, UniProt P02768); experiment: Plasma protein binding estimated by HPLC on a […] HSA column; type: in vitro ADME; settings: CHIRALPAK HSA column (50 × 3 mm, 5 μm), estimated by an HPLC-based method, read-out: PPB (plasma protein binding) (converted)
T1 construct: purchased
T1 sequence (P02768 25-609): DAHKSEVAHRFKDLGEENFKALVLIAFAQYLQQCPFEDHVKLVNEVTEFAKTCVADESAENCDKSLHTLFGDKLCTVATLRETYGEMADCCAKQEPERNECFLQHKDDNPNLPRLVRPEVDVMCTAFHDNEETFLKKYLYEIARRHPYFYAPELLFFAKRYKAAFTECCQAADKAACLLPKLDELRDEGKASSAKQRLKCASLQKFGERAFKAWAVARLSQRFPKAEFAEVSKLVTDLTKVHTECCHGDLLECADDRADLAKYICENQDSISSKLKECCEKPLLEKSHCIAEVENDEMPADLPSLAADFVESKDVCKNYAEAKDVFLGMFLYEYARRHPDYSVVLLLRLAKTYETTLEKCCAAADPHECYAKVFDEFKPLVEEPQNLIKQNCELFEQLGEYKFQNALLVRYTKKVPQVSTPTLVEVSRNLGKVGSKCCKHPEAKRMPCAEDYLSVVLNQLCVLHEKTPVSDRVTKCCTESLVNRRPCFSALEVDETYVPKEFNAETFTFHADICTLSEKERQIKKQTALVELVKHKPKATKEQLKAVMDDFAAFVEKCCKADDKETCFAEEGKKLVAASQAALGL
Protocol: Plasma protein binding (% PPB) was estimated by correlating the logarithmic retention times of the analytes on a […] HSA 50 × 3 mm, 5 μm column with the literature-known % PPB values (converted into log K values) of the following drugs: warfarin, ketoprofen, budesonide, nizatidine, indomethacin, acetylsalicylic acid, carbamazepine, piroxicam, nicardipine, and cimetidine (for details, see Valko et al.).[67] The samples were dissolved in MeCN/DMSO 9:1 to achieve a final concentration of 0.5 mg/mL. Mobile phase A was 50 mM ammonium acetate adjusted to pH 7.4 with ammonia solution, while mobile phase B was iPrOH. The flow rate was set to 1.0 mL/min, the UV detector was set to 254 nm, and the column temperature was kept at 30 °C. After injecting 2 μL of the sample, a linear gradient from 100% A to 30% iPrOH in 5.4 min was applied. From 5.4 to 18 min, 30% iPrOH was kept, followed by switching back to 100% A in 1.0 min and a re-equilibration time of 6 min. With the aid of the calibration line (R^2 = 0.96), the log K values of new substances were calculated and converted to their % PPB values.

IKZF3 = experiment: Immunoblotting (western blot) quantification of IKZF3 levels in MM.1S cells; settings: for %remaining protein IKZF3: 16 h treatment at 0.1 μM, normalized to loading control and DMSO; for IKZF3 degradation (in words): 16 h, 1 μM
Protocol: as §1, §2

XIAP = XIAP (Homo sapiens, UniProt P98170); experiment: Immunoblotting (western blot) quantification of XIAP levels in MM.1S cells; settings: for remaining activity at 0.1 µM: MM1.S, 16 h
XIAP, sequence (P98170 whole entry): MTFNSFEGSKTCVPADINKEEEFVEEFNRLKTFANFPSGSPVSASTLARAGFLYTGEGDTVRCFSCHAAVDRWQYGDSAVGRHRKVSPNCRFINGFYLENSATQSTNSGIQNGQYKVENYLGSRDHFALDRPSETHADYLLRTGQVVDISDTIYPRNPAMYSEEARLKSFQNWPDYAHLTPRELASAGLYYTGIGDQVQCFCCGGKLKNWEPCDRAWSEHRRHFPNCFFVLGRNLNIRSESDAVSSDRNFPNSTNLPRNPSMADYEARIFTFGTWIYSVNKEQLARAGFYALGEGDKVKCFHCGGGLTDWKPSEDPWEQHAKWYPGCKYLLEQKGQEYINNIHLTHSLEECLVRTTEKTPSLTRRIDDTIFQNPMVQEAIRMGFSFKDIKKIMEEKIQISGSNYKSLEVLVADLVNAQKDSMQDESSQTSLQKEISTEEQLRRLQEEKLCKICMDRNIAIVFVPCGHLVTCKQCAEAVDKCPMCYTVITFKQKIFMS
Protocol: as §1, §2

[3] = tested on: IAPs (cIAP1, cIAP2, XIAP); experiment: Immunoblotting of IAPs in MM.1S cells, overall degradation profile, time course and washout; type: cell-based; settings: 16 h, western blot, concentration (10 nM to 1 μM)
Protocol: Next, we examined the persistence of IAP degradation in MM.1S cells after a single exposure to 1 μM of 9 and subsequent removal of the compound. […] The reliance on CRL2^VHL was assessed with a neddylation inhibitor MLN4924, which blocks the activity of CRLs (Figure S13A).

VHL30 = VHL30 (Homo sapiens, UniProt P40337); experiment: Immunoblotting (western blot) quantification of VHL30 levels in MM.1S cells; settings: MM1.S, 16 h, read-out: %remaining protein VHL30
VHL30, sequence (P40337 whole entry): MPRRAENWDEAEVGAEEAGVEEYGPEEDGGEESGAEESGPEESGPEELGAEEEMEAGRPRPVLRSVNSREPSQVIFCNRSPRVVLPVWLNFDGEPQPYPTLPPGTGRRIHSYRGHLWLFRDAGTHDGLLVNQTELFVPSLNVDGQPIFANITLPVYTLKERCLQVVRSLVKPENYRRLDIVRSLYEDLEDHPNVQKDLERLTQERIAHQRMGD

[4] = 16 h, read-out: %remaining protein cIAP2, MM.1S cells, 16 h treatment at 0.1 μM, normalized to loading control and DMSO
[5] = read-out: %remaining protein cIAP1, MM.1S cells, 16 h treatment at 0.1 μM, normalized to loading control and DMSO
[6] = read-out: %remaining protein XIAP, MM.1S cells, 16 h treatment at 0.1 μM, normalized to loading control and DMSO
[7] = 16 h, read-out: %remaining protein cIAP2
[8] = read-out: %remaining protein cIAP1
[9] = read-out: %remaining protein XIAP
[10] = MM.1S cells, 16 h treatment at 0.1 μM, normalized to loading control and DMSO

cIAP2, sequence (Q13489 whole entry): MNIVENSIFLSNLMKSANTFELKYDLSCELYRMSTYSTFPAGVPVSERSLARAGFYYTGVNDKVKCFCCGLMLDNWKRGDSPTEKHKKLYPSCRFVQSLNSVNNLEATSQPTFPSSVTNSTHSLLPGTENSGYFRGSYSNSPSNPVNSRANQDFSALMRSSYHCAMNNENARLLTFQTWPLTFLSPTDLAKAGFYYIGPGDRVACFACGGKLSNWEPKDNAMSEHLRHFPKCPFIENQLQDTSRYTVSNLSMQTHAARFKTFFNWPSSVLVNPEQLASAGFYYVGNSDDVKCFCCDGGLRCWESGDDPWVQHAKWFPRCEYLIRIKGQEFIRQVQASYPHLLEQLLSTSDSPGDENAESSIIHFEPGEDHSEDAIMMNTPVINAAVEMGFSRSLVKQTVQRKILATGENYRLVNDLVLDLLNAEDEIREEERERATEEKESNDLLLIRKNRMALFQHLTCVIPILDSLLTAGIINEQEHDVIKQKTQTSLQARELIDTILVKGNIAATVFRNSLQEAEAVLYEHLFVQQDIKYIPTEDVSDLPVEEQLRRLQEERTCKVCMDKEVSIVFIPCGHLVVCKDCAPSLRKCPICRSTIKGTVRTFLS

Compound | remaining activity at 0.1 µM (cIAP2; [4]) [%] | remaining activity at 0.1 µM (CRBN) [%] | remaining activity at 0.1 µM (cIAP1; [5]) [%] | chromatographic logD [1] | fraction unbound at 0.5 mg/mL [2] | remaining activity at 0.1 µM (XIAP; [6]) [%] | %remaining protein IKZF3 (IKZF3) [%] | IAP degradation profile (in words) [3] | further results
CN[C@@H](C)C(=O)N[C@H](C(=O)N1C[C@@H](Oc2cccc(OCCCCCOCCCCCOCCCCCCNc3cccc4c3C(=O)N(C3CCC(=O)NC3=O)C4=O)c2)C[C@H]1C(=O)N[C@@H]1CCCc2ccccc21)C1CCCCC1 (stereo partly drawn) [PROTAC 26, (2S,4S)-1-((S)-2-Cyclohexyl-2-((S)-2-(methylamino)propanamido)acetyl)-4-(3-((5-((5-((6-((2-(2,6-dioxopiperidin-3-yl)-1,3-dioxoisoindolin-4-yl)amino)hexyl)oxy)pentyl)oxy)pentyl)oxy)phenoxy)-N-((R)-1,2,3,4-tetrahydronaphthalen-1-yl)pyrrolidine-2-carboxamide] | – | 95 | – | 6.5 | – | – | 90 | pronounced pan-IAP depletion | remaining activity at 0.1 µM (cIAP2; [7]): 16%; remaining activity at 0.1 µM (cIAP1; [8]): 10%; IKZF3 degradation (in words) (IKZF3): substantial IKZF3 degradation at 1 μM; remaining activity at 0.1 µM (XIAP; [9]): 2%
CN[C@@H](C)C(=O)N[C@H](C(=O)N1C[C@@H](Oc2cccc(OCCCCOCCCCNc3cccc4c3C(=O)N(C3CCC(=O)NC3=O)C4=O)c2)C[C@H]1C(=O)N[C@@H]1CCCc2ccccc21)C1CCCCC1 (stereo partly drawn) [PROTAC 22, (2S,4S)-1-((S)-2-Cyclohexyl-2-((S)-2-(methylamino)propanamido)acetyl)-4-(3-(4-(4-((2-(2,6-dioxopiperidin-3-yl)-1,3-dioxoisoindolin-4-yl)amino)butoxy)butoxy)phenoxy)-N-((R)-1,2,3,4-tetrahydronaphthalen-1-yl)pyrrolidine-2-carboxamide] | 7 | 77 | 3 | 4.9 | 0.04 | 2 | 61 | pronounced pan-IAP depletion | IKZF3 degradation (in words) (IKZF3): substantial IKZF3 degradation at 1 μM; IKZF3 degraded (IKZF3; 16 h treatment, 0.1 μM): approximately 40%
CN[C@@H](C)C(=O)N[C@H](C(=O)N1C[C@@H](Oc2cccc(OCCCCCNc3cccc4c3C(=O)N(C3CCC(=O)NC3=O)C4=O)c2)C[C@H]1C(=O)N[C@@H]1CCCc2ccccc21)C1CCCCC1 (stereo partly drawn) [PROTAC 20, (2S,4S)-1-((S)-2-Cyclohexyl-2-((S)-2-(methylamino)propanamido)acetyl)-4-(3-((5-((2-(2,6-dioxopiperidin-3-yl)-1,3-dioxoisoindolin-4-yl)amino)pentyl)oxy)phenoxy)-N-((R)-1,2,3,4-tetrahydronaphthalen-1-yl)pyrrolidine-2-carboxamide] | 34 | 95 | 6 | 4.6 | 0.04 | 8 | 89 | – | –
CN[C@@H](C)C(=O)N[C@H](C(=O)N1C[C@@H](Oc2cccc(OCCCCCCCCOc3cc(-c4scnc4C)ccc3CNC(=O)[C@@H]3C[C@@H](O)CN3C(=O)[C@H](C(C)C)N3Cc4ccccc4C3=O)c2)C[C@H]1C(=O)N[C@@H]1CCCc2ccccc21)C1CCCCC1 [PROTAC 13, (2S,4S)-1-((S)-2-Cyclohexyl-2-((S)-2-(methylamino)propanamido)acetyl)-4-(3-((8-(2-(((2S,4R)-4-hydroxy-1-((S)-3-methyl-2-(1-oxoisoindolin-2-yl)butanoyl)pyrrolidine-2-carboxamido)methyl)-5-(4-methylthiazol-5-yl)phenoxy)octyl)oxy)phenoxy)-N-((R)-1,2,3,4-tetrahydronaphthalen-1-yl)pyrrolidine-2-carboxamide] | – | – | – | 4.8 | 0.03 | – | – | – | remaining activity at 0.1 µM (cIAP2; [7]): 15%; remaining activity at 0.1 µM (cIAP1; [8]): 3%; remaining activity at 0.1 µM (VHL30): 53%; remaining activity at 0.1 µM (XIAP; [9]): 5%
(2S,4S)-1-((S)-2-Cyclohexyl-2-((S)-2-(methylamino)propanamido)acetyl)-4-(3-((8-((2-(2,6-dioxopiperidin-3-yl)-1,3-dioxoisoindolin-4-yl)amino)octyl)oxy)phenoxy)-N-((R)-1,2,3,4-tetrahydronaphthalen-1-yl)pyrrolidine-2-carboxamide [PROTAC 21] | – | – | – | – | – | – | 95 | – | %remaining protein cIAP2 (cIAP2; [10]): 14%; %remaining protein CRBN (CRBN; [10]): 90%; %remaining protein cIAP1 (cIAP1; [10]): 5%; logD (experimental partition coefficient, elog D7.4) ([1]; pH 7.4, fast-gradient HPLC method): 5.7; %remaining protein XIAP (XIAP; [10]): 4%

Now from value to compound, other results behind:

remaining activity at 0.1 µM (cIAP2; [4]) [%] | remaining activity at 0.1 µM (CRBN) [%] | remaining activity at 0.1 µM (cIAP1; [5]) [%] | chromatographic logD [1] | fraction unbound at 0.5 mg/mL [2] | remaining activity at 0.1 µM (XIAP; [6]) [%] | Compound | %remaining protein IKZF3 (IKZF3) [%] | IAP degradation profile (in words) [3] | further results
11 | 85 | 4 | 3.9 | 0.05 | 3 | CN[C@@H](C)C(=O)N[C@H](C(=O)N1C[C@@H](Oc2cccc(OCCOCCOCCNc3cccc4c3C(=O)N(C3CCC(=O)NC3=O)C4=O)c2)C[C@H]1C(=O)N[C@@H]1CCCc2ccccc21)C1CCCCC1 (stereo partly drawn) [PROTAC 23, (2S,4S)-1-((S)-2-Cyclohexyl-2-((S)-2-(methylamino)propanamido)acetyl)-4-(3-(2-(2-(2-((2-(2,6-dioxopiperidin-3-yl)-1,3-dioxoisoindolin-4-yl)amino)ethoxy)ethoxy)ethoxy)phenoxy)-N-((R)-1,2,3,4-tetrahydronaphthalen-1-yl)pyrrolidine-2-carboxamide] | 95 | – | –
8 | 86 | 4 | 3.9 | 0.06 | 2 | CN[C@@H](C)C(=O)N[C@H](C(=O)N1C[C@@H](Oc2cccc(OCCOCCOCCOCCNc3cccc4c3C(=O)N(C3CCC(=O)NC3=O)C4=O)c2)C[C@H]1C(=O)N[C@@H]1CCCc2ccccc21)C1CCCCC1 (stereo partly drawn) [PROTAC 24, (2S,4S)-1-((S)-2-Cyclohexyl-2-((S)-2-(methylamino)propanamido)acetyl)-4-(3-(2-(2-(2-(2-((2-(2,6-dioxopiperidin-3-yl)-1,3-dioxoisoindolin-4-yl)amino)ethoxy)ethoxy)ethoxy)ethoxy)phenoxy)-N-((R)-1,2,3,4-tetrahydronaphthalen-1-yl)pyrrolidine-2-carboxamide] | 95 | – | –
– | – | – | 3.4 | 0.05 | – | CC[C@H](NC(=O)[C@H](C)NC)C(=O)N1C[C@@H](O)C[C@H]1Cc1c(-c2[nH]c3cc(F)ccc3c2C[C@@H]2C[C@H](O)CN2C(=O)[C@H](CC)NC(=O)[C@H](C)NC)[nH]c2cc(F)ccc12 [birinapant, reference compound] | – | potent cIAP autodegradation | cIAP2 degradation (in words) (cIAP2; MM.1S cells, 16 h, western blot, 0.1 or 1 μM): substantial degradation
